In US20240142474A1, “Opsins as Chemosensory Receptors and Related Methods” (The Regents of the University of California, priority 2021, published 2024):
“Also recorded” adds a separate entry of the source.

How the values were obtained:
OPN1SW [1] = target: T1, OPN1SW (Homo sapiens, UniProt P03999); experiment: Calcium flux GPCR activation assay with Fluo-8 dye, opsin-expressing HEK293T cells, OPN1SW; format: cell-based; conditions: Fluo-8 calcium flux, data not shown
T1 construct: expressed in transfected cells; host or cells: HEK293T
T1 sequence (P03999 1-345): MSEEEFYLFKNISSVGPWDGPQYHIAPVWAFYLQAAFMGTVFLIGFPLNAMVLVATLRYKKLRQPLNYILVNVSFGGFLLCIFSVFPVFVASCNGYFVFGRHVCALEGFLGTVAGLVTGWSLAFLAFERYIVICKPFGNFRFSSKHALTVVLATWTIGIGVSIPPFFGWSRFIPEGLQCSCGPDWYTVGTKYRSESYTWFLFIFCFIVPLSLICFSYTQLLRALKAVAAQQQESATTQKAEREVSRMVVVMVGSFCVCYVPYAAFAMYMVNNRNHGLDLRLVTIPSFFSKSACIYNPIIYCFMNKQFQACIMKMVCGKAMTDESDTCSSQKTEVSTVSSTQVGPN
Procedure: (§1) These foregoing TANTO results were further confirmed using a second, a calcium flux GPCR activation assay employing Fluo-8 dye, as follows. For this intracellular Ca^2+ measurement, opsin-expressing HEK293T cells were seeded onto 96-well plates (4×10^4 cells per well) in 100 μl of culture medium with reduced serum contents (0.5% of FBS) per well and incubated overnight under standard culture conditions. [Ca2+]i level was assessed the next day after stimulation with bitter compounds used at a different concentration with the SCREEN QUEST Fluo-8 No Wash Calcium Assay Kit (AAT Bioquest, Inc., Sunnyvale, CA, USA) according to the supplier's protocol. Calcium flux was monitored simultaneously by the change in fluorescence (Ex/Em=490/520 nm) following stimulation and with respect to the background fluorescence. [Ca^2+]i was monitored for a period of three minutes, starting before the addition of compounds to the wells and continuing during measurement of the fluorescent signal following cells' stimulation. The obtained fluorescence reads were normalized to the results obtained after stimulation of the cells with the compound solvent.

OPN1SW [2] = target: T2, OPN1SW (Mus musculus, UniProt P51491); experiment: TANGO assay (beta-arrestin recruitment, luciferase reporter) in HTLA cells, OPN1SW; format: cell-based; conditions: 4 hours
T2 construct: expressed in transfected cells; host or cells: HTLA cells (HEK293 line with tTA-dependent luciferase reporter and beta-arrestin2-TEV fusion)
T2 sequence (P51491 1-346): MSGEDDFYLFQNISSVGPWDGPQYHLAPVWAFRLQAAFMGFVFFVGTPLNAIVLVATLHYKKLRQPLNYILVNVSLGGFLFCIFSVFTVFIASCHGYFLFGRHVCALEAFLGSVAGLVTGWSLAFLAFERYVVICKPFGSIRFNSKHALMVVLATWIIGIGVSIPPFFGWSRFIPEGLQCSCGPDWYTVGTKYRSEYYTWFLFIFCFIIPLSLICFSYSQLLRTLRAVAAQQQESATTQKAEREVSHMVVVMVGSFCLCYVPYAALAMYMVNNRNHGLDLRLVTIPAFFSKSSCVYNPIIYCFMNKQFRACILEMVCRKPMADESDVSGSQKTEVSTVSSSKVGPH
Text: (§2) For example, in one implementation the chemosensory opsin activation detection element comprises a TANGO assay (Transcriptional Activation Following Arrestin Translocation), as known in the art, for example, as described by Kroeze et al., 2015. PRESTO-Tango as an open-source resource for interrogation the druggable human GPCRome. Nat Struct Mol Biol 22, 362-369. In the TANGO systems of the invention, a cell is engineered to express a chemosensory opsin in the form of a fusion protein, wherein the opsin fusion protein comprises an optional membrane trafficking signal (e.g. HA), an optional FLAG tag or like epitope to facilitate detection, and a transcriptional activator which induces the expression of a reporter gene, such as luciferase, wherein the transcriptional activator is joined to an intracellular portion of the opsin, for example, the […], by a cleavage sequence. The cells of the TANGO system are further engineered to express a second fusion protein comprising a beta-arrestin fused to a protease, for example, a TEV protease, wherein the protease is capable of cleaving the fusion protein at the cleavage site. The cells of the TANGO system are further engineered to express a reporter protein, e.g. luciferase, under the control of a transcriptional activator, for example, tetracycline-controlled transactivaor (tTA). Ligand binding to the opsin deployed in the TANGO system triggers a conformational change in the opsin that recruits the beta arrestin-protease fusion protein to the opsin, where proximity of the protease induces cleavage of the transcriptional activator, which trafficks to the nucleus and induces the expression of the reporter gene. The TANGO system advantageously allows direct quantification of opsin activation, independent of g protein activity.
(§3) Human transcriptomics data was mined to identify putative taste receptor proteins. […] However, the role of these opsins in taste perception has not been previously explored. TANGO detection elements employing each of these opsins, in both human and mouse isoforms, were created in HTLA cells (a HEK293 cell line stably expressing a tTA-dependent luciferase reporter and a β-arrestin2-TEV fusion gene), based on protocols in Kroeze et al., 2015. PRESTO-Tango as an open-source resource for interrogation of the druggable human GPCRome. Nat Struct Mol Biol 22, 362-369.
(§4) In the TANGO assay, the mouse opsin coding sequence with an N-terminal FLAG tag was synthesized. The construct was cloned into a TANGO vector (Addgene, Waterton MA) at the ClaI site (FLAG::opsin). The HTLA cells were transfected in a 6-well format with LIPOFECTAMINE 2000™ (Thermo Fisher Scientific, Inc, Waltham MA, USA) according to the manufacturer's instructions. 6-8 hours post transfection cells weret split 1:3 and the media was switched to DMEM+ 2.5% fetal bovine serum (Thermo Fisher Scientific Inc., Waltham MA, USA). Cells were allowed to grow for 48 hours before splitting the cells onto poly-L-lysine-coated 96-well clear, flat bottom white polystyrene plates in serum-free media. The next day, chemical solutions diluted in TANGO assay buffer (20 mM HEPES, 1× HBSS, pH 7.40) were added to the cells. After 4 hours, the medium and drug solutions were removed and replaced with […] per well of BRIGHTGLO™ reagent (Promega Corporation, Madison WI) diluted 20-fold with TANGO assay buffer. Plates were incubated for 20 minutes at room temperature in the dark before measuring luminescence with a plate reader (Molecular Devices, iD3). The normalized response was calculated using following formula: RLU (relative luminescence units)=test compound RLU−average vehicle control RLU.

OPN3 [3] = target: T3, OPN3 (Homo sapiens, UniProt Q9H1Y3); experiment: Calcium flux GPCR activation assay with Fluo-8 dye, opsin-expressing HEK293T cells, OPN3; format: cell-based; conditions: Fluo-8 calcium flux, data not shown
T3 construct: expressed in transfected cells; host or cells: HEK293T
T3 sequence (Q9H1Y3 whole entry): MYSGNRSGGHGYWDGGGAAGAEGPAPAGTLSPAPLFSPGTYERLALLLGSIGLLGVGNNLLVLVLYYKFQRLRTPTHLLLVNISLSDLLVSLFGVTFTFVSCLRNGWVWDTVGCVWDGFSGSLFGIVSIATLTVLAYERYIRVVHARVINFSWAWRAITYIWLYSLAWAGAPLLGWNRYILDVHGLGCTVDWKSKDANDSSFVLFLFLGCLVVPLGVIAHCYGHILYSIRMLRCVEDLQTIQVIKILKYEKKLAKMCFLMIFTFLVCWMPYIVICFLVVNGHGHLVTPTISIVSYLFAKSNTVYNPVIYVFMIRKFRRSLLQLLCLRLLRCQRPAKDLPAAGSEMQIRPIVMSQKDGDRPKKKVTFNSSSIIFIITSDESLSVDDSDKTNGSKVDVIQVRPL
Procedure: as §1

OPN3 [4] = target: T4, OPN3 (Mus musculus, UniProt Q9WUK7); experiment: TANGO assay (beta-arrestin recruitment, luciferase reporter) in HTLA cells, OPN3; format: cell-based; conditions: 4 hours
T4 construct: expressed in transfected cells; host or cells: HTLA cells (HEK293 line with tTA-dependent luciferase reporter and beta-arrestin2-TEV fusion)
T4 sequence (Q9WUK7 whole entry, the tested form may be a part): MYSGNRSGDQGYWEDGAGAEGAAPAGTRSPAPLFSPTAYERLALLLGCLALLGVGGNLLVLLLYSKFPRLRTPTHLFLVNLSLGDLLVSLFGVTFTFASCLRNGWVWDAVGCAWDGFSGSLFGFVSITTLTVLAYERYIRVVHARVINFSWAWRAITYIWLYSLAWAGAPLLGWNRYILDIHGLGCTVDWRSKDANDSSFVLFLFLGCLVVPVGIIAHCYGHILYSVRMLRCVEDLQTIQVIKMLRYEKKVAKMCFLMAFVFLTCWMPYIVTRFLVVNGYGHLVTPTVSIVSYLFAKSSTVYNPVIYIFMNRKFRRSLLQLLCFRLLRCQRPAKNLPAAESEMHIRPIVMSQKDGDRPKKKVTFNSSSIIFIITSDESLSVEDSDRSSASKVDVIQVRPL
Text: as §2, §3, §4

OPN3 knockout mice = experiment: Mouse brief-access taste assay (lickometer), OPN3 knockout mice compared to wild type; format: in vivo; conditions: water restricted
Procedure: Knockout mice were obtained for OPN1SW and OPN3. Two independent OPN3 knockout mice lines were tested for reaction to naringin by a mouse taste preference assay. A Lickometer device (MS-160, Di Log Instruments, Inc.,Tallahassee, FL, USA) was used to train mice and then measure their licking responses to different tastants in brief-access trials. On a given trial, each sipper tube was filled with a solution and made available to a mouse via a small port that opened to a metal/plexiglass chamber housing the animal. The mouse chamber of the lickometer was modified for these studies by adding a plexiglass barrier that restricted the free movement of animals to an approximate 10 by 15 cm area facing the fluid access port. A computer running software that communicated with the lickometer recorded tongue contacts with the metal tip of the sipper tube during licking and the time intervals (precision=1 ms) between consecutive licks (inter-lick intervals). The amount of time that the sipper tube was available through the access port could be programmed and was controlled by the opening of a normally closed, computer-actuated shutter. This feature facilitated presentation of solutions to a mouse for only a few seconds to support measurements of brief-access licking behavior. By indexing initial licking responses to stimuli over short periods, brief-access procedures intend to focus on oral sensory influences and avoid any post-ingestive effect. Groups of three to four mice were run in these studies at one time. Groups always included equal numbers of mutant and wild-type mice to control for temporal factors.
Training. Mice were restricted from drinking water for 20-22 hours prior to the onset of training. During training, experimentally naive mice learned to receive fluid in the lickometer over a 3-day period. On the first and second day of training, mice were given 30 minutes free access to a single sipper tube of water to familiarize them with accessing fluid in the lickometer device. Each 30 minute period began when the mouse made its first lick on the sipper tube; mice were allowed 30 minutes to make their first lick. On the third day of training, mice were presented with 10 second presentations (i.e., trials) of water to familiarize them with receiving and consuming fluid under a brief-access procedure in the lickometer. On each trial, the shutter that blocked access to the sipper tube was opened and mice were given 10 seconds to lick, and lick data were recorded by the lickometer computer. […]
Testing. […] For studies, individual Opn3KO, Opn1swKO, Opn4KO, Opn5KO and wild-type mice were evaluated for brief-access licking responses with different agonists. […]

Compound | activation of OPN1SW, fold-change from baseline luciferase signal vs. log concentration of tastant (OPN1SW [2]) | activation of calcium dye OPN3 detection elements (OPN3 [3]) | activation of OPN3, fold-change from baseline luciferase signal vs. log concentration of tastant (OPN3 [4]) | further results
CC1(C)O[C@H]2CC(=O)OC[C@]23[C@H]2CC[C@@]4(C)[C@H](c5ccoc5)OC(=O)[C@H]5O[C@]54[C@]2(C)C(=O)C[C@@H]13 [limonin] | activation of OPN1SW; also recorded: activated | – | – | activation of calcium dye OPN1SW detection elements (OPN1SW [1]): significantly activated in a concentration dependent manner
Cn1c(=O)c2[nH]cnc2n(C)c1=O [theophylline] | activation of OPN1SW; also recorded: activated | – | – | activation of calcium dye OPN1SW detection elements (OPN1SW [1]): significantly activated in a concentration dependent manner
COc1ccc2c(c1OC)C(=O)O[C@@H]2[C@H]1c2c(cc3c(c2OC)OCO3)CCN1C [noscapine] | – | significantly activated in a concentration dependent manner | activation of OPN3; also recorded: activated | –
Oc1cc(O)c2c(c1)O[C@H](c1cc(O)c(O)c(O)c1)[C@H](O)C2 [Epigallocatechin] | – | – | activated OPN3 | aversion to the bitter flavor (lick ratio), OPN3 knockout mice compared to wild type mice (OPN3 knockout mice): reduced aversion
O=C(O[C@@H]1Cc2c(O)cc(O)cc2O[C@@H]1c1cc(O)c(O)c(O)c1)c1cc(O)c(O)c(O)c1 [epigallocatechin gallate] | – | – | activation of OPN3 | –
catechin | – | – | activated OPN3; also recorded: activation of OPN3 | aversion to the bitter flavor (lick ratio), OPN3 knockout mice compared to wild type mice (OPN3 knockout mice): reduced aversion
CC1=CC(=O)[N-]S(=O)(=O)O1.[K+] [asulfame potassium] | activation of OPN1SW | – | activation of OPN3 | –
O=c1c(O)c(-c2ccc(O)c(O)c2)oc2cc(O)cc(O)c12 [quercetin] | – | – | activated OPN3; also recorded: activation of OPN3 | aversion to the bitter flavor (lick ratio), OPN3 knockout mice compared to wild type mice (OPN3 knockout mice): reduced aversion
N#C[C@H](O[C@@H]1O[C@H](CO[C@@H]2O[C@H](CO)[C@@H](O)[C@H](O)[C@H]2O)[C@@H](O)[C@H](O)[C@H]1O)c1ccccc1 [amygdalin] | – | significantly activated in a concentration dependent manner | activation of OPN3; also recorded: activated | –
OC[C@H]1O[C@@H](Oc2ccc(O)cc2)[C@H](O)[C@@H](O)[C@@H]1O [arbutin] | – | significantly activated in a concentration dependent manner | activation of OPN3; also recorded: activated | –
OC[C@H]1O[C@@H](Oc2ccccc2)[C@H](O)[C@@H](O)[C@@H]1O [phe-β-Glu, Phenyl-β-D-glucopyranoside] | – | significantly activated in a concentration dependent manner | activated | activation of OPN3, fold-change from baseline luciferase signal vs. log concentration of tastant (OPN3 [4]; listed as Phenyl-β-D-glucopyranoside): activation of OPN3
O=c1c(-c2ccc(O)cc2)coc2cc(O)cc(O)c12 [genistein] | activated | – | – | activation of calcium dye OPN1SW detection elements (OPN1SW [1]): significantly activated in a concentration dependent manner; activation of OPN1SW, fold-change from baseline luciferase signal vs. log concentration of tastant (OPN1SW [2]; listed as genestein): activation of OPN1SW
O=c1c(O)c(-c2cc(O)c(O)c(O)c2)oc2cc(O)cc(O)c12 [myricetin] | – | – | activation of OPN3 | –
